One data set has as its system patients with asthma. Description: Double-blind, randomized, parallel group clinical study, ciclesonide vs budesonide once daily in the evening for 12 weeks. The data set is classed as in vivo. The settings on record: for FEV1 / FVC / PEF / morning PEF: ex smokers, ITT, LSmeans. An excerpt: Another objective was to provide information on the safety and tolerability of ciclesonide.

The subject of the next data set is asthma patients. The following applies: ex-smokers, ciclesonide versus budesonide; cited from earlier work.
For data set [1] the following is noted: cited from earlier work.
For data set [2], the system named is glucocorticosteroid receptor. The settings on record: ratio versus ciclesonide; cited from earlier work.
Setting [3] is: end of 12 weeks, CIC 200 μg or BUD 400 μg once daily in the evening.

`CCCC1O[C@@H]2C[C@H]3[C@@H]4CCC5=CC(=O)C=C[C@]5(C)[C@H]4[C@@H](O)C[C@]3(C)[C@]2(C(=O)CO)O1` (stereo partly shown) [budesonide]: in the data set on patients with asthma (setting [3]), the FEV1 came out at 2.602 L, the FVC is 3.385 L, the PEF is given as 357 L/min and the morning PEF turned out to be 391 L/min. In the data set with patients with asthma (start of treatment), this compound gave an FEV1 of 2.339 L, an FVC of 3.146 L, a PEF of 310 L/min and a morning PEF of 370 L/min.

Regarding `CC(C)C(=O)OCC(=O)[C@@]12O[C@H](C3CCCCC3)O[C@@H]1C[C@H]1[C@@H]3CCC4=CC(=O)C=C[C@]4(C)[C@H]3[C@@H](O)C[C@@]12C` [Ciclesonide, [11β,16α(R)]-16,17-[(Cyclohexylmethylene)bis(oxy)]-11-hydroxy-21-(2-methyl-1-oxo-propoxy)pregna-1,4-diene-3,20-dione], in the data set on patients with asthma ((ex-)smokers subgroup, after 12 weeks of treatment), the “change in FEV1, subgroup analysis” value is “statistically significant increases”. In the data set on patients with asthma (setting [3]), this compound yielded an FEV1 of 2.773 L, an FVC of 3.604 L, a PEF of 391 L/min and a morning PEF of 416 L/min. In the data set on patients with asthma (start of treatment), this compound came in with an FEV1 of 2.336 L, an FVC of 3.146 L, a PEF of 310 L/min and a morning PEF of 370 L/min. Also, the “improvement in lung function compared to treatment with budesonide” value with patients with asthma (smoking asthmatic patients) was “superior improvements in lung function”. The “subgroup analysis of FEV1” value in the data set on asthma patients was “trend for superiority of ciclesonide over budesonide”. Also, in data set [1] (in vivo), the “concentration of the drug in the lungs” value is reported as “high”, the “metabolism by liver oxidases” value is “very high”, the plasma half-life entry is “low” and the systemic activity entry is recorded as “low”. In addition, the “absorption after oral administration” value in data set [1] (oral) was “only moderately absorbed”.

As to `C[C@]12C=CC(=O)C=C1CC[C@@H]1[C@@H]2[C@@H](O)C[C@@]2(C)[C@H]1C[C@H]1O[C@@H](C3CCCCC3)O[C@]12C(=O)CO` (mixture of isomers) [desisobutyryl-ciclesonide, 16α,17-(22R,S)-cyclohexylmethylenedioxy-11β,21-dihydroxypregna-1,4-diene-3,20-dione], the “affinity to the glucocorticosteroid receptor relative to ciclesonide” value in data set [2] is on record as “approximately 100 times higher”.

The values above are taken from patent publication US20070134165A1 (Altana Pharma AG, priority 2004, published 2007).
